# Data reported in US20050059661A1, “Use of tyrosine kinase inhibitors for the treatment of inflammatory processes” (Boehringer Ingelheim International GmbH, priority 2003, published 2005).
# Test system: cigarette smoke-induced influx of neutrophilic granulocytes into the lung tissue
# Assay: Test 1: Inhibition of the smoke-induced accumulation of granulocytes in the lung tissue (MPO activity)
# Assay type: in vivo, rats (Sprague-Dawley)
# Conditions: male Sprague-Dawley rats, 5 days smoke from 8 cigarettes per day, intratracheal dose 30 min before exposure, lung tissue MPO, linear regression
# Description: • A=4-[(R)-(1-phenyl-ethyl)amino]-6-{[4-((R)-6-methyl-2-oxo-morpholin-4-yl)-1-oxo-2-buten-1-yl]amino}-7-methoxy-quinazoline, • B=4-[(3-chloro-4-fluorophenyl)amino]-6-({4-[N,N-bis-(2-methoxy-ethyl)-amino]-1-oxo-2-buten-1-yl}amino)-7-[(tetrahydrofuran-2-yl)methoxy]-quinazoline, • C=4-[(3-chloro-4-fluoro-phenyl)amino]-6-[2-(2,2-dimethyl-6-oxo-morpholin-4-yl)-ethoxy]-7-methoxy-quinazoline, • D=4-[(3-chloro-4-fluoro-phenyl)amino]-6-[2-(2,2-dimethyl-6-oxo-morpholin-4-yl)-ethoxy]-7-[(R)-(tetrahydrofuran-2-yl)methoxy]-quinazoline and • E=4-[(3-chloro-4-fluoro-phenyl)amino]-7-[2-(2,2-dimethyl-6-oxo-morpholin-4-yl)-ethoxy]-6-[(S)-(tetrahydrofuran-2-yl)methoxy]-quinazoline were tested as follows to investigate their anti-inflammatory activity: Test 1: Inhibition of the Smoke-Induced Accumulation of Granulocytes in the Lung Tissue Lung indications: Inhibition of the cigarette smoke-induced influx of neutrophilic granulocytes into the lung tissue by the EGF-receptor kinase inhibitor 4-[(R)-(1-phenyl-ethyl)amino]-6-{[4-((R)-6-methyl-2-oxo-morpholin-4-yl)-1-oxo-2-buten-1-yl]amino}-7-methoxy-quinazoline (compound A). Male rats (strain: Sprague-Dawley) weighing from 250-300 g were exposed for 5 days to the smoke from 8 cigarettes per day. The animals in the group treated with compound A, anaesthetised with isofluran, were given an intratracheal dose of 0.03 or 0.1 mg/kg of compound A in a volume of 0.05 ml each day 30 min before the start of the exposure to smoke. On the last day of the test the animals were killed 4 hours after the last exposure to smoke and the lung tissue was removed. A sample of 70-200 mg was taken from each lung and placed in a test tube prepared with 1 ml of 0.5% hexadecyltrimethylammonium bromide. The samples were homogenised for 15 sec using an Ultraturrax. The homogenised samples were centrifuged at 15700 g in an Eppendorf bench centrifuge for 5 min at ambient temperature. […] of the supernatant was removed and mixed with […] of phosphate buffer (50 mmol/l) containing 0.197 mg/ml of O-dianisidine dihydrochloride. After 10 minutes' incubation at ambient temperature the absorption was measured with a spectral photometer at a wavelength of 450 nm. The dosage which led to a 50% inhibition of the MPO activity (═ID50) was determined by linear regression.
row,Compound,ID50 (dosage which led to a 50% inhibition of the MPO activity) [mg/kg]
1,"COc1cc2ncnc(N[C@H](C)c3ccccc3)c2cc1NC(=O)C=CCN1CC(=O)O[C@H](C)C1 [A, 4-[(R)-(1-phenyl-ethyl)amino]-6-{[4-((R)-6-methyl-2-oxo-morpholin-4-yl)-1-oxo-2-buten-1-yl]amino}-7-methoxy-quinazoline]",0.3
2,"COCCN(CC=CC(=O)Nc1cc2c(Nc3ccc(F)c(Cl)c3)ncnc2cc1OCC1CCCO1)CCOC (stereo not drawn) [B, 4-[(3-chloro-4-fluorophenyl)amino]-6-({4-[N,N-bis-(2-methoxy-ethyl)-amino]-1-oxo-2-buten-1-yl}amino)-7-[(tetrahydrofuran-2-yl)methoxy]-quinazoline]",0.2
3,"COc1cc2ncnc(Nc3ccc(F)c(Cl)c3)c2cc1OCCN1CC(=O)OC(C)(C)C1 [C, 4-[(3-chloro-4-fluoro-phenyl)amino]-6-[2-(2,2-dimethyl-6-oxo-morpholin-4-yl)-ethoxy]-7-methoxy-quinazoline]",1
4,"CC1(C)CN(CCOc2cc3c(Nc4ccc(F)c(Cl)c4)ncnc3cc2OC[C@H]2CCCO2)CC(=O)O1 [D, 4-[(3-chloro-4-fluoro-phenyl)amino]-6-[2-(2,2-dimethyl-6-oxo-morpholin-4-yl)-ethoxy]-7-[(R)-(tetrahydrofuran-2-yl)methoxy]-quinazoline]",1.1
5,"CC1(C)CN(CCOc2cc3ncnc(Nc4ccc(F)c(Cl)c4)c3cc2OC[C@@H]2CCCO2)CC(=O)O1 [E, 4-[(3-chloro-4-fluoro-phenyl)amino]-7-[2-(2,2-dimethyl-6-oxo-morpholin-4-yl)-ethoxy]-6-[(S)-(tetrahydrofuran-2-yl)methoxy]-quinazoline]",0.4

# Same assay, conditions: rats, intratracheal 0.03 or 0.1 mg/kg daily for 5 days, 30 min before smoke exposure
row,Compound,inhibition of the smoke-induced accumulation of granulocytes (myeloperoxidase content of lung tissue)
1,"COc1cc2ncnc(N[C@H](C)c3ccccc3)c2cc1NC(=O)C=CCN1CC(=O)O[C@H](C)C1 [A, 4-[(R)-(1-phenyl-ethyl)amino]-6-{[4-((R)-6-methyl-2-oxo-morpholin-4-yl)-1-oxo-2-buten-1-yl]amino}-7-methoxy-quinazoline]",significant (p<0.005) inhibition
